From patent US8383616B2, “Aryl isoxazole compounds with antitumoural activities” (Sigma-Tau Industrie Farmaceutiche Riunite SpA, priority 2008, dated 2013)

Key:
[1] = test system: human epithelial carcinoma cell line A431; assay: Cytotoxicity assay (sulphorodamine B test), A431; assay type: cell-based; conditions: Homo sapiens, A-431, 72-h exposure
Experimental: (§1) Tumour cells were seeded in 96-well tissue culture plates at approximately 10% confluence and were allowed to attach and recover for at least 24 h. Varying concentrations of the drugs were then added to each well to calculate their IC50 value (the concentration which inhibits the 50% of cell survival). The plates were incubated at 37° C. for 72 h. At the end of the treatment, the plates were washed by removal of the supernatant and addition of phosphate buffered saline (PBS) 3 times. 200 μl PBS and 50 μl of cold 80% trichloroacetic acid (TCA) were added. The plates were incubated on ice for at least 1 h. TCA was removed, the plates were washed 3 times by immersion in distilled water and dried on paper and at 40° C. for 5 min. Then 200 μl of 0.4% sulphorodamine B in 1% acetic acid were added. The plates were incubated at RT for 30 min. Sulphorodamine B was removed, the plates were washed by immersion in 1% acetic acid for 3 times, then they were dried on paper and at 40° C. for 5 min. Then, 200 μl Tris 10 mM were added, the plates were kept under stirring for 20 min. The cell survival was determined as optical density by a Multiskan spectrofluorimeter at 540 nm. The amount of cells killed was calculated as the percentage decrease in sulphorodamine B binding compared with control cultures.
(§2) The IC50 values were calculated with the “ALLFIT” program.
The antiproliferative activity of novel Hsp90 inhibitors was evaluated on NCI-H460 non-small cell lung carcinoma cells and on a human epithelial carcinoma cell line A431.
(§3) The antiproliferative IC50 was evaluated as drug concentration required for 50% reduction of cell growth as compared with untreated controls after 72-h exposure to the drug. The IC50±SD values reported were calculated by ALLFIT program.

Hsp90 = molecular target: T1, Hsp90 (Homo sapiens, UniProt P07900); assay: Fluorescence polarization (FP) binding assay, displacement of GM-BODIPY; conditions: GM-BODIPY tracer, 125 nM Hsp90, 4 h at 4° C.; read-out: F.P. binding assay IC50
T1 construct: purchased Stressgen SPP-776
Experimental: Fluorescence Polarization (FP)
GM-BODIPY (PerkinElmer, CUSN60342000MG) was previously dissolved in DMSO to obtain 10 mM stock solutions and kept at −20° C. until use.
The compounds were previously dissolved in DMSO to obtain stock solutions and kept at −20° C. The day of experiment, the compounds were prepared by serial dilutions in HFB. Before each use, 0.1 mg/ml Bovine Gamma globulin and 2 mM DTT were freshly added.
The plate was mixed on a shaker at 4° C. for 4 hours, and the FP values in mP (millipolarization units) were recorded. […] Curve fitting was performed using Prism GraphPad software program (GraphPad software, Inc., San Diego, Calif.).
Curve fitting was performed using Prism GraphPad software program (GraphPad software, Inc., San Diego, Calif.).

[2] = test system: NCI-H460 non-small cell lung carcinoma cells; assay: Cytotoxicity assay (sulphorodamine B test), NCI-H460; assay type: cell-based; conditions: Homo sapiens, NCI-H460, 72-h exposure
Experimental: To evaluate the effect of the compounds on cells survival, the sulphorodamine B test was used. To test the effects of the compounds on cell growth, NCI-H460 non-small cell lung carcinoma cells were used. Tumour cells were grown in RPMI 1640 containing 10% fetal bovine serum (GIBCO).
as §1, §2, §3

| SMILES | IC50 (Hsp90) | IC50 [1] | IC50 [2] |
| --- | --- | --- | --- |
| CCNC(=O)c1noc(-c2cc(Cl)c(O)cc2O)c1NCc1ccc(OC)cc1 [Example 27, 4-(4-methoxybenzylamino)-5-(5-chloro-2,4-dihydroxyphenyl)-N-ethylisoxazole-3-carboxamide] | 100 to 1000 nM | 1000 to 10000 nM | 1000 to 10000 nM |
| CCNC(=O)c1noc(-c2cc(Cl)c(O)cc2O)c1NCc1sccc1C [Example 28, 4-((3-methylthiophen-2-yl)methylamino)-5-(5-chloro-2,4-dihydroxyphenyl)-N-ethylisoxazole-3-carboxamide] | 100 to 1000 nM | 1000 to 10000 nM | 1000 to 10000 nM |
| CCNC(=O)c1noc(-c2cc(Cl)c(O)cc2O)c1NC1CCCCC1 [Example 29, 5-(5-chloro-2,4-dihydroxyphenyl)-4-(cyclohexylamino)-N-ethylisoxazole-3-carboxamide] | 100 to 1000 nM | 1000 to 10000 nM | 1000 to 10000 nM |
| CCNC(=O)c1noc(-c2cc(Cl)c(O)cc2O)c1NC1CCN(C)CC1 [Example 30, 4-(1-methylpiperidin-4-ylamino)-5-(5-chloro-2,4-dihydroxyphenyl)-N-ethylisoxazole-3-carboxamide] | 1000 to 10000 nM | 1000 to 10000 nM | 1000 to 10000 nM |
| CCNC(=O)c1noc(-c2cc(Cl)c(O)cc2O)c1NCc1cc(CO)no1 [Example 32, 4-((3-(hydroxymethyl)isoxazol-5-yl)methylamino)-5-(5-chloro-2,4-dihydroxyphenyl)-N-ethylisoxazole-3-carboxamide] | 100 to 1000 nM | 1000 to 10000 nM | 1000 to 10000 nM |
| COc1ccc(C(=O)Nc2c(C(=O)NCC(F)(F)F)noc2-c2cc(Cl)c(O)cc2O)cc1 [Example 33, 4-(4-methoxybenzamido)-5-(5-chloro-2,4-dihydroxyphenyl)-N-(2,2,2-trifluoroethyl)-isoxazole-3-carboxamide] | 100 to 1000 nM | 100 to 1000 nM | 1000 to 10000 nM |

Continued, in another order:

| IC50 (Hsp90) | SMILES | IC50 [1] | IC50 [2] |
| --- | --- | --- | --- |
| 100 to 1000 nM | CCCCC[C@H]1CC[C@H](C(=O)Nc2c(C(=O)NCC)noc2-c2cc(C(C)C)c(O)cc2O)CC1 [Example 20, 5-(2,4-dihydroxy-5-isopropyl-phenyl)-4-[(trans-4-pentyl-cyclohexanecarbonyl)-amino]-isoxazole-3-carboxylic acid ethylamide] | 1000 to 10000 nM | 1000 to 10000 nM |
| 100 to 1000 nM | CCNC(=O)c1noc(-c2cc(C(C)C)c(O)cc2O)c1NC(=O)C1CCC(C(F)(F)F)CC1 (stereo not drawn) [Example 21, 5-(2,4-dihydroxy-5-isopropyl-phenyl)-4-[(4-trifluoromethyl-cyclohexanecarbonyl)-amino]-isoxazole-3-carboxylic acid ethylamide] | < 100 nM | < 100 nM |
| < 100 nM | CCNC(=O)c1cc(C(=O)Nc2c(C(=O)NCC)noc2-c2cc(C(C)C)c(O)cc2O)on1 [Example 22, N^5-(3-(ethylcarbamoyl)-5-(2,4-dihydroxy-5-isopropylphenyl)-isoxazol-4-yl)-N^3-ethylisoxazole-3,5-dicarboxamide] | 1000 to 10000 nM | 1000 to 10000 nM |
| < 100 nM | CCNC(=O)c1noc(-c2cc(Cl)c(O)cc2O)c1NCc1cc(C(=O)OC)no1 [Example 31, Methyl 5-((3-(ethylcarbamoyl)-5-(5-chloro-2,4-dihydroxyphenyl)isoxazol-4-ylamino)methyl)isoxazole-3-carboxylate] | 1000 to 10000 nM | 1000 to 10000 nM |
